# Test results from US11203595B2, “Aza-indazole compounds for use in tendon and/or ligament injuries” (NOVARTIS AG, priority 2016, dated 2021).
# Read-outs that look alike come from different tables or passages of the source.
# What was measured:
# [1] = test system: Scleraxis (Scx) gene transcriptional activation, TT-D6 Scx-luciferase (ScxL) cell line; test: SCX-LUC in vitro assay (scleraxis-luciferase reporter); type: cell-based, mouse; conditions: read-out: Scx-Luc (EC50 μM)
# [2] = Cumulative release of microparticle formulations in PBS buffer (FIG. 1); type: physicochemical; conditions: incorporated into PLGA microparticles; following the initial burst; PBS buffer pH 7.4, 1% Tween 20
# [3] = In-vivo release from microparticles in a rat model; conditions: PLGA microparticles
# [4] = Mus musculus, 96 h, TT-D6 Scx-luciferase cells, 1 ng/ml TGFβ1, four days
Structure (SMILES),"EC50 [1, 4] [µM]",further results
"CNS(=O)(=O)c1ccc(S(=O)(=O)Nc2ccc(-c3ccc4[nH]nc(N)c4n3)c(Cl)c2)cc1 [Example 76, N1-(4-(3-amino-1H-pyrazolo[4,3-b]pyridin-5-yl)-3-chlorophenyl)-N4-methylbenzene-1,4-disulfonamide]",0.003,
"Nc1n[nH]c2ccc(-c3ccc(S(=O)(=O)N[C@H]4CCC[C@H]4O)cc3Cl)nc12 [Example 35, 4-(3-amino-1H-pyrazolo[4,3-b]pyridin-5-yl)-3-chloro-N-((1S,2R)-2-hydroxycyclopentyl)benzenesulfonamide]",,"EC50 ([1]; Mus musculus, 96 h): 2.73 µM"
"Cc1cc(S(=O)(=O)N[C@H]2C[C@](O)(C(F)(F)F)C2)ccc1-c1ccc2[nH]nc(N)c2n1 [Example 2, 4-(3-amino-1H-pyrazolo[4,3-b]pyridin-5-yl)-N-((1s,3s)-3-hydroxy-3-(trifluoromethyl)cyclobutyl)-3-methylbenzenesulfonamide]",,period of steady state release of drug [2]: 21 days; extended release in-vivo [3]: 4 weeks
"Nc1n[nH]c2ccc(-c3ccc(S(=O)(=O)N4CCC[C@H]4CO)cc3Cl)nc12 [(S)-(1-((4-(3-amino-1H-pyrazolo[4,3-b]pyridin-5-yl)-3-chlorophenyl)sulfonyl)pyrrolidin-2-yl)methanol]",> 10,
"Nc1n[nH]c2ccc(-c3ccc(S(=O)(=O)NC4CCC(O)(C(F)(F)F)CC4)cc3Cl)nc12 [4-(3-amino-1H-pyrazolo[4,3-b]pyridin-5-yl)-3-chloro-N-((1R,4R)-4-hydroxy-4-(trifluoromethyl)cyclohexyl)benzenesulfonamide]",,"EC50 ([1]; TT-D6 Scx-luciferase cells, 1 ng/ml TGFβ1, four days): > 10 µM"
"Nc1n[nH]c2ccc(-c3ccc(NS(=O)(=O)c4ccccc4)cc3Cl)nc12 [Example 46, N-(4-(3-amino-1H-pyrazolo[4,3-b]pyridin-5-yl)-3-chlorophenyl)benzenesulfonamide]",0.01,
"Nc1n[nH]c2ccc(-c3ccc(S(=O)(=O)NC4CCS(=O)(=O)CC4)cc3Cl)nc12 [Example 50, 4-(3-amino-1H-pyrazolo[4,3-b]pyridin-5-yl)-3-chloro-N-(1,1-dioxidotetrahydro-2H-thiopyran-4-yl)benzenesulfonamide]",> 10,
